Reference: article PMC3121796 (PLoS ONE, 2011)
Positions of bridges follow the written chain, without caps; N, C: chain ends. Residues, ends and D or L forms follow the SMILES beside them. No end group written: not given here.

What was measured:
[1] = target: T1, human Nav1.7 (hNav1.7) (Homo sapiens, UniProt Q15858); assay: whole-cell patch-clamp assay, inhibition of hNav1.7 currents; type: cell-based; conditions: 1 µmole/L toxin, HEK293 cells expressing hNav1.7, depolarization to −10 mV, room temperature, one range given for both toxins
T1 construct: expressed in transfected cells; host or cells: HEK293
T1 sequence (Q15858 whole entry): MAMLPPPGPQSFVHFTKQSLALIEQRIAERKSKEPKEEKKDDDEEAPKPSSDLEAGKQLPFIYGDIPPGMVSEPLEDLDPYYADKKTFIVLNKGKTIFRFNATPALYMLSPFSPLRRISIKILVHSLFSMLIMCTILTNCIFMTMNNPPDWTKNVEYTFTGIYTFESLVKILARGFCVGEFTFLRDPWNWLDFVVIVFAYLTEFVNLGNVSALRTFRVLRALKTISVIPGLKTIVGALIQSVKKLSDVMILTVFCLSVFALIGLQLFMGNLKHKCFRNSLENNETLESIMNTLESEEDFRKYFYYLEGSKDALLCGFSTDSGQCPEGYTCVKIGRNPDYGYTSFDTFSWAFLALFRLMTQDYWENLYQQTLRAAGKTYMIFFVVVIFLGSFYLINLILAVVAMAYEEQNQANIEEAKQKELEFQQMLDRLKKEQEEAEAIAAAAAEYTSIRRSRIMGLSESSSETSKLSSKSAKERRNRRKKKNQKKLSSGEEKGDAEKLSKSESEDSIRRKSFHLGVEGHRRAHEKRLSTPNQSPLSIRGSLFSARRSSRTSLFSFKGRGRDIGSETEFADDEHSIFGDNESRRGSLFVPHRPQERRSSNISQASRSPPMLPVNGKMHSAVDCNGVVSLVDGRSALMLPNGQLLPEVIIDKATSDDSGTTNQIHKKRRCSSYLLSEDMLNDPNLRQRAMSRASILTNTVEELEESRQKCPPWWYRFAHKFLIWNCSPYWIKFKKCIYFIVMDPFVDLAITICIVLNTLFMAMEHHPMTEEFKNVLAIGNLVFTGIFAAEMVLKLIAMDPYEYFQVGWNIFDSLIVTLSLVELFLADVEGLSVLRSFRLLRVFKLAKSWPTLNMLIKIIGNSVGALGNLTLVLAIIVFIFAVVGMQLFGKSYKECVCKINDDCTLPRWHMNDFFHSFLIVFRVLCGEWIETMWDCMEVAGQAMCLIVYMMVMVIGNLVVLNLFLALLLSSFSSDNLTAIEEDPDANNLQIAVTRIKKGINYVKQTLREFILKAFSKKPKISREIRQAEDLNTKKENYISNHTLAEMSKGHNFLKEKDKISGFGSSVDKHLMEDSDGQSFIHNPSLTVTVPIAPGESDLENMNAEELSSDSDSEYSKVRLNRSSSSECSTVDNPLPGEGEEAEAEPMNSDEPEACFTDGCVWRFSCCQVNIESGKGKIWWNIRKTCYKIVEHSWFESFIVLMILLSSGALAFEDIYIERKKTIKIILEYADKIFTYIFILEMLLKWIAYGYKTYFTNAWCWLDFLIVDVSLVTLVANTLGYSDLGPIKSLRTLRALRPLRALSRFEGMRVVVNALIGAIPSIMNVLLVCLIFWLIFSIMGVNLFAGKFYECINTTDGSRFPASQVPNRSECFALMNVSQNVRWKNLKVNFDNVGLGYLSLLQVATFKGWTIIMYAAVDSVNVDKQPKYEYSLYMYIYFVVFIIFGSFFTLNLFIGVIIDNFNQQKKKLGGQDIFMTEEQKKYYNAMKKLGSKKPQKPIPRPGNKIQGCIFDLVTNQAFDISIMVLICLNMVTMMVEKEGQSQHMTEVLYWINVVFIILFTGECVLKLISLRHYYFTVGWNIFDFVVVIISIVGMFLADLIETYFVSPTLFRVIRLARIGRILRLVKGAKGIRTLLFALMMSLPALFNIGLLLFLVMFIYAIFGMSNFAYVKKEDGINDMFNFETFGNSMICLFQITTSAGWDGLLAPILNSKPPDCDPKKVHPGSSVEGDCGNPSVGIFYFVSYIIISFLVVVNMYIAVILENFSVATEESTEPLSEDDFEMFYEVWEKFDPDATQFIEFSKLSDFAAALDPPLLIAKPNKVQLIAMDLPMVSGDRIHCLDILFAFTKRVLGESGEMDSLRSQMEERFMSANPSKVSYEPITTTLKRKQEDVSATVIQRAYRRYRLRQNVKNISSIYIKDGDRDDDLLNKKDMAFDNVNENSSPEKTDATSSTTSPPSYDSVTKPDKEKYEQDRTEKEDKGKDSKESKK

[2] = cited from earlier work
Description: It was reported that the cytoplasm of E. coli cells contains high levels of reduced glutathione (approximately 5 mmole/L); therefore, the potential of ...

## CC(C)C[C@H](NC(=O)[C@H](CCCCN)NC(=O)[C@H](Cc1c[nH]c2ccccc12)NC(=O)[C@H](CCCCN)NC(=O)[C@@H]1CSSC[C@@H]2NC(=O)[C@H](CCC(=O)O)NC(=O)[C@H](CC(N)=O)NC(=O)[C@H](CCCCN)NC(=O)CNC(=O)[C@@H]3CCCN3C(=O)[C@H]([C@@H](C)O)NC(=O)[C@@H]3CSSC[C@H](NC(=O)[C@H](C(C)C)NC(=O)[C@H](CCCNC(=N)N)NC(=O)[C@H](CC(N)=O)NC(=O)[C@@H]4CCCN4C(=O)[C@H](CSSC[C@H](NC(=O)[C@H](C)N)C(=O)N[C@@H](CCCCN)C(=O)NCC(=O)N[C@@H](C(C)C)C(=O)N[C@@H](Cc4ccccc4)C(=O)N[C@@H](CC(=O)O)C(=O)N[C@@H](C)C(=O)N3)NC2=O)C(=O)N[C@@H](CO)C(=O)N[C@@H](CC(=O)O)C(=O)N[C@@H](CCCCN)C(=O)N[C@@H](Cc2c[nH]cn2)C(=O)N[C@@H](CCCCN)C(=O)N[C@@H](Cc2c[nH]c3ccccc23)C(=O)N1)C(=O)O [rHWTX-I] (H-ACKGVFDACTPGKNECCPNRVCSDKHKWCKWKL-OH; disulfide 2-17, 9-22, 16-29)
[1]
  hNav1.7 current reduced to (remaining current): 33–36%

## rHWTX-I (GST or KIS fusion, cytoplasm): earlier rHWTX-I expressed fused with GST or ketosteroid isomerase (KIS) in the cytoplasm of E. coli cells (ACKGVFDACTPGKNECCPNRVCSDKHKWCKWKL; not fully specified; cysteine pairing not given here; UniProt P56676 49-81, looked up)
[2]; GST fusion expressed in cytoplasm of E. coli, no disulfide bridge formed, ref [8]
  bioactivity after release by enzyme digestion: very low bioactivity
[2]; released from GST or KIS fusion protein expressed in cytoplasm of E. coli, after reduction/renaturation treatment, ref [8], [9]
  bioactivity after reduction/renaturation: fully restore the bioactivities
[2]; released from GST or KIS fusion protein expressed in cytoplasm of E. coli, before reduction/renaturation treatment, ref [8], [9]
  bioactivity before reduction/renaturation: extremely low bioactivity

## rHWTX-I (baculovirus): earlier rHWTX-I expressed in a baculovirus system (ACKGVFDACTPGKNECCPNRVCSDKHKWCKWKL; ends and bridges not checked; cysteine pairing not given here; UniProt P56676 49-81, looked up)
[2]; baculovirus system, ref [11]
  bioactivity of baculovirus-expressed peptide: demonstrated natural bioactivities
